Series [1] relates to endothelial glycocalyx. As to conditions: in vivo; cited from earlier work.
Series [2] deals with endothelial glycocalyx. On the set-up: species or system human. As to conditions: in vivo.
The next series deals with glycocalyx shedding. The series is described as follows: Plasma glycocalyx components (hyaluronan, heparan sulphate) and hyaluronidase activity after endotoxin challenge. In kind it is in vivo, human. How it is done:
(§1) Twentyone healthy Caucasian male volunteers were studied. […] Participants had no history of cardiovascular disease. […] All experiments were performed after an overnight fast.

Series [3] concerns endotoxin-induced inflammatory reactions. Nature of the series: Clinical symptoms and vital signs after intravenous endotoxin challenge in healthy male volunteers. In kind it is in vivo, human. The protocol:
as §1

Series [4] has as its system sublingual microcirculation. Nature of the series: Microvascular glycocalyx / capillary density by OPS imaging of the sublingual microcirculation after endotoxin challenge. The class given is in vivo, human. The conditions noted are these: upon endotoxin challenge; from 59±7 at baseline; p<0.01. How it is done: as §1
Thickness of endothelial glycocalyx in individual capillary blood vessels was measured by orthogonal polarization spectral (OPS) imaging of the sublingual microcirculation (Cytometrics, Philadelphia, Pa., USA) as previously published (Nieuwdorp et al. 2006, supra; Nieuwdorp et al. 2006. Diabetes 55: 1127-32). In short, the width of flowing erythrocytes was measured in 5 individual capillaries before and immediately after capillary leukocyte passage. In healthy capillaries, the glycocalyx limits capillary blood filling by separating erythrocytes from the luminal endothelial surface, which is known as the red cell exclusion zone. […] Images sized 728×576 pixels were recorded were collected with a 5× objective providing a 325× magnification at a frame rate of 25/second. […] The anatomical capillary diameter and the width of the flowing erythrocyte column were measured using digital calipers prior to and after spontaneous capillary leukocyte passage. Per participant, glycocalyx dimension was determined in at least 5 capillaries. […] In addition as indication of capillary density, the number of capillaries per field was counted.

In series [5] the test system is thrombin generation and fibrinolysis. The series is described as follows: Coagulation and fibrinolysis markers (prothrombin fragment F1+2, D-dimer) after endotoxin challenge. The class given is in vivo, human. The conditions noted are these: p<0.05. How it is done:
as §1

Series [6] has as its system TNFα-induced inflammatory responses. Nature of the series: Plasma inflammatory markers (IL-6, CRP) and circulating leukocytes after endotoxin challenge. In kind it is in vivo, human. How it is done: as §1
A further series has as its system monocytes. Nature of the series: Leukocyte differentiation and monocyte flow cytometry after endotoxin challenge. In kind it is in vivo, human. The protocol: as §1
Whole blood samples were collected in pyrogen-free lithium-heparin tubes and then incubated for 10 min with 9 volumes ice-cold erythrocyte lysis buffer and centrifuged for 10 min at 4° C. Remaining cells were washed twice with ice-cold PBS. For flow cytometric analysis 0.5×10^6 cells were incubated in FACS buffer mixed with antibody. All reagents were titrated to obtain optimal results as recommended by the manufacturers. Cell surface staining was performed with Fluorescein Isothiocyanate (FITC) labelled mouse anti-human CD14 (IgG2a), anti-human Allophycocyanin (APC) labelled CD18 (IgG1) and Phycoerythrin (PE) labelled anti-human CD11b (IgG1) and CD62L (IgG1) (R&D Systems, San Jose, Calif., USA). Appropriate isotype control antibodies were used to correct for non-specific antibody binding. After staining, the cells were washed, fixed in 4% paraformaldehyde, and analyzed by flow cytometry using a FACS Calibur flow cytometer. Data were analyzed with CellQuest software (Becton Dickinson, Franklin Lakes, N.J., USA).
A general note: A flow cytometer gives signals particle by particle.

Series [7] deals with endothelial glycocalyx. The series is described as follows: Estimation of systemic glycocalyx volume (Dextran 40 distribution volume minus circulating plasma volume) after endotoxin challenge. The class given is in vivo, human. On the set-up: haematocrit values: unit not given here. As to conditions: 4 hours after endotoxin infusion. How it is done:
as §1
Systemic glycocalyx volume was estimated as previously published by subtracting circulating plasma volume from the intravascular distribution volume of the glycocalyx permeable tracer Dextran 40 (Nieuwdorp M et al. 2006. Diabetes 55: 480-6; Suffredini et al. 1999, supra). Circulating plasma volume was calculated with a previously published method (Orth et al. 1998. Anesth Analg 87: 1234-8). The intravascular distribution volume of labelled autologous erythrocytes was used to quantify the circulating blood volume. Blood was drawn and centrifuged at 1,330 rpm for 5 minutes. Subsequently, sodium fluorescein (fluorescein-di-Na 25%, 250 mg/ml, AZUA Pharmacy, Amsterdam, the Netherlands) was added to the erythrocyte fraction for 5 minutes. After careful washing, labelled erythrocytes were resuspended in saline to the initial volume (60 ml) and re-infused. Subsequently, blood was drawn at 4, 5, 6, and 7 minutes after infusion. The fraction of labelled erythrocytes in the total erythrocyte pool was used to estimate the circulating erythrocyte volume (VERY). Pre-injection unlabeled erythrocytes served as negative control. The fraction of labelled erythrocytes in the blood was measured using a FACScan analyzer (FACS Calibur®, Becton Dickinson, Mountain View, USA). At least 100,000 cells were counted. Data were analyzed by Cellquest (Becton Dickinson, San Jose, Calif., USA). Haematocrit (Ht) was measured after centrifugation of heparinized blood in a Hettich-Haematokrit centrifuge at 10,000 rpm during 5 minutes (Hettich, Tuttlingen, Germany). Circulating plasma volume was calculated from VERY and large vessel Ht by the following formula: circulating plasma volume=([1−Ht]×VERY)/Ht.
Dextran 40 (Rheomacrodex; NPBI International, Emmercompascuum, the Netherlands) was used as a probe to estimate total intravascular volume, which includes the glycocalyx compartment. A bolus of 10 ml Dextran 1 (Promiten; NPBI International, Emmer-compascuum, the Netherlands) was injected to attenuate the risk of anaphylactic reactions prior to Dextran 40 infusion. 100 ml Dextran 40 was injected intravenously, followed by repeated blood sampling at 5, 7, 10, 15, 20, and 30 minutes. Dextran 40 concentration was calculated by measuring the increase in glucose concentration in the post infusion samples after hydrolyzation of Dextran 40 glucose polymers (Van Kreel et al. 1998. Clin Chim Acta 275: 71-80). Glucose concentration per time point was assessed in duplicate using the hexokinase method (Gluco-quant, Hitachi 917; Hitachi). To determine the initial intravascular distribution volume of Dextran 40, the concentration of Dextran 40 at the time of injection was estimated by exponential fitting of the measured Dextran 40 concentrations. Exponential time constants (τ [min]) were used to determine Dextran 40 systemic clearance rates (τ^−1 min^−1).

As for `O=[N+]([O-])OCC(CO[N+](=O)[O-])O[N+](=O)[O-]` [nitroglycerine], in the series with endothelial glycocalyx [1], the “effect on the glycocalyx as known” value is given as “known to cause damage to the glycocalyx”. Moreover, the “status of the glycocalyx (RBCW, glycocalyx width; FIGS. 5A and 5B)” value with endothelial glycocalyx [2] was “a clear distinction between the status of the glycocalyx in treated and untreated subjects”.

Turning to Etanercept, the “plasma hyaluronidase activity, change compared to baseline” value with glycocalyx shedding (4 hours after endotoxin infusion, ns) is −8±14%. Besides, in the series with glycocalyx shedding (24 hours after endotoxin infusion, p<0.01 versus saline group), the “plasma heparan sulphate levels” value is 7.4 ± 1.5 µg/mL. In addition, in the series on glycocalyx shedding (during the 4 hours after endotoxin challenge, from 5.4±1.3, ns), the “heparan sulphate plasma levels” value was 5.1 ± 1.0 µg/mL. Moreover, in the series with glycocalyx shedding (within first hour after endotoxin infusion, from 58±13, p<0.05), the plasma hyaluronan levels amounted to 46 ± 10 ng/mL. The same molecule returned a body temperature in series [3] (4 hours after endotoxin infusion, from 36.6±0.5 at baseline, ns) of 37.3±0.5 °C. This molecule also returned a heart rate in series [3] (4 hours after endotoxin infusion, from 62±4 at baseline, ns) of 69±3. Also, the diastolic blood pressure in [3] (4 hours after endotoxin infusion, from 69±6 at baseline, ns) was found to be 67±6 mm Hg. The systolic blood pressure in series [3] (4 hours after endotoxin infusion, from 125±7 at baseline, ns) was found to be 123±10 mmHg. In series [3] (after endotoxin infusion, saline versus Etanercept group, data not shown), the “clinical symptoms of endotoxemia (chills, headache, myalgia, nausea)” value is “more frequently and more intensive in the saline group compared to the Etanercept group”. Besides, the “capillary density (number of capillaries per field)” value in series [4] is on record as 43±15. This molecule also yielded a D-dimer in series [5] (from 0.2±0.1 at baseline) of 0.3 ± 0.1 mg/L. The “prothrombin activation fragment F1+2” value in [5] (from 0.3±0.1 at baseline) was found to be 2.1 ± 0.9 nmol/L. Besides, in [6] (4 hours after endotoxin, both treatment groups), the “number of circulating leukocytes compared to baseline” value was “doubled”. Further, in series [6] (after endotoxin challenge, from 0.6±0.4 at baseline, p<0.01), the “plasma CRP” value stood at 16.0 ± 3.4 mg/L. Besides, in series [6] (after endotoxin challenge, from 4.6±3.1 at baseline, p<0.05), the plasma IL-6 came out at 127 ± 98 pg/mL. The “reduction of monocyte count” value in the series with monocytes (4 hours after endotoxin infusion, p<0.05 compared to baseline) is on record as 51±32%. The “change in percentage of CD62L+ (L-selectin) expressing monocytes” value with monocytes (4 hours after endotoxin, p<0.05 versus saline group) is recorded as “+66±42%”. For the same molecule, the “CD14+ monocyte counts” value in the series on monocytes (after endotoxin infusion, ns between groups) was found to be 26±13%. Further, the “CD11b+/CD18+ (Mac-1 complex) monocyte count, median” value in the series on monocytes (after endotoxin infusion, p<0.01 versus saline) was 0.65±0.1. Besides, the systemic glycocalyx volume in the series with endothelial glycocalyx [7] (baseline 1.7±0.5, p<0.01) is 1.1 ± 0.2 L. Also, the “systemic Dextran 40 clearance rate” value in the series on endothelial glycocalyx [7] (from 0.009±0.002 at baseline, ns) is 0.009 ± 0.001 min⁻¹. For the same molecule, the haematocrit values with endothelial glycocalyx [7] (from 0.43±0.02 at baseline, ns) is 0.42±0.02. Further, the circulating plasma volume with endothelial glycocalyx [7] (from 2.9±0.5 at baseline, ns) is 2.8 ± 0.6 L. Also, the “Dextran 40 distribution volume” value in the series on endothelial glycocalyx [7] (from 4.6±0.6 at baseline, p<0.05) was 3.9 ± 0.5 L. In the series with endothelial glycocalyx [7] (saline group versus Etanercept group), the “rate of Dextran 40 plasma clearance (FIG. 1B)” value was “increased in the saline group as compared with Etanercept group”.

Source of the values: patent publication US8759095B2, “Diagnostic and therapeutic tools for diseases altering vascular function” (Universiteit Maastricht, priority 2007, dated 2014).
